Reference: patent US9315500B2, “Bicyclic heteroaryl cycloalkyldiamine derivatives” (NOVARTIS AG, priority 2012, dated 2016)

target: SYK (SYK(2-635)) (Homo sapiens (Human), UniProt P43405); assay: SYK enzyme assay (chip based microfluidic mobility shift assay); format: biochemical; conditions: SYK kinase, 4 μM ATP/peptide solution, 30° C., 60 minutes, Caliper mobility shift
Experimental: A number of compounds of the present invention were assayed in a chip based microfluidic mobility shift assay. All assays were performed in 384 well microtiter plates. Each assay plate contained 8-point serial dilutions for 40 test compounds, as well as four 8-point serial dilutions of staurosporine as reference compound, plus 16 high- and 16 low controls. Liquid handling and incubation steps were done on a Thermo CatX workstation equipped with a Innovadyne Nanodrop Express. Between pipetting steps, tips were cleaned in wash cycles using wash buffer. The assay plates were prepared by addition of 50 nl per well of compound solution in 90% DMSO. The kinase reactions were started by stepwise addition of 4.5 μl per well of peptide/ATP-solution (50 mM HEPES, pH 7.5, 1 mM DTT, 0.02% Tween20, 0.02% BSA, 0.6% DMSO, 10 mM beta-glycerophosphate, and 10 μM sodium orthovanadate, 1 mM MgCl2, 3 mM MnCl2, 4 μM ATP, 4 μM peptide (5-Fluo-Ahx-GAPDYENLQELNKK-Amid) and 4.5 μl per well of enzyme solution (50 mM HEPES, pH 7.5, 1 mM DTT, 0.02% Tween20, 0.02% BSA, 0.6% DMSO, 10 mM beta-glycerophosphate, and 10 μM sodium orthovanadate, 1 mM MgCl2, 3 mM MnCl2, 4 nM SYK (SYK(2-635), produced in-house from insect cells). Kinase reactions were incubated at 30° C. for 60 minutes and subsequently terminated by addition of 16 μl per well of stop solution (100 mM HEPES pH 7.5, 5% DMSO, 0.1% Caliper coating reagent, 10 mM EDTA, and 0.015% Brij35). Plates with terminated kinase reactions were transferred to the Caliper LC3000 workstations for reading. Phosphorylated and unphosphorylated peptides were separated using the Caliper microfluidic mobility shift technology. Briefly, samples from terminated kinase reactions were applied to the chip. Analytes are transported through the chip by constant buffer flow and the migration of the substrate peptide is monitored by the fluorescence signal of its label. Phosphorylated peptide (product) and unphosphorylated peptide (substrate) are separated in an electric field by their charge/mass ratio. Kinase activities were calculated from the amounts of formed phospho-peptide. IC50 values were determined from percent inhibition values at different compound concentrations by non-linear regression analysis.
Test compounds were dissolved in DMSO (10 mM) and transferred into 1.4 mL flat bottom or V-shaped Matrix tubes carrying a unique 2D matrix. The stock solutions were stored at […] if not used immediately. For the test procedure the vials were defrosted and identified by a scanner whereby a working sheet was generated that guided the subsequent working steps.
Compound dilutions were made in 96 well plates. This format enabled the assay of maximally 40 individual test compounds at 8 concentrations (single points) including 4 reference compounds. The dilution protocol included the production of “pre-dilution plates”, “master plates” and “assay plates”.
Pre-dilution plates: 96 polypropylene well plates were used as pre-dilution plates. A total of 4 pre-dilution plates were prepared including 10 test compounds each on the plate positions A1-A10, one standard compound at A11 and one DMSO control at A12. All dilution steps were done on a HamiltonSTAR robot.
Master plates: 30 μL of individual compound dilutions including standard compound and controls of the 4 “pre-dilution plates” were transferred into a 384 “master plate” including the following concentrations 1′810, 362, 72.5, […], 14.5, 2.9, 0.58 and 0.12 μM, respectively in 90% of DMSO.
Assay plates: Identical “assay plates” were then prepared by pipetting 50 nL each of compound dilutions of the “master plates” into 384-well “assay plates” by means of a HummingBird 384-channel dispenser. These plates were used directly for the assay which was performed in a total volume of 9.05 μL. This led to a final compound concentration of 10, 2.0, 0.4, 0.08, 0.016, 0.0032, 0.00064 and 0.000128 μM and a final DMSO concentration of 0.5% in the assay.

| Compound | IC50 |
| --- | --- |
| Cc1c[nH]c2c(Nc3nc(N[C@@H]4CCCC[C@@H]4N)c(F)c4cn[nH]c(=O)c34)cc(F)cc12 [Example 1.1, 7-((1R,2S)-2-Amino-cyclohexylamino)-8-fluoro-5-(5-fluoro-3-methyl-1H-indol-7-ylamino)-3H-pyrido[3,4-d]pyridazin-4-one] | 2 nM |
| N[C@H]1CCCC[C@H]1Nc1nc(Nc2cccc3ncccc23)c2c(=O)[nH]ncc2c1F [Example 1.2, 7-((1R,2S)-2-Amino-cyclohexylamino)-8-fluoro-5-(quinolin-5-ylamino)-3H-pyrido[3,4-d]pyridazin-4-one] | 44 nM |
| Cc1c[nH]c2c(Nc3nc(N[C@@H]4CCCC[C@@H]4N)cc4cn[nH]c(=O)c34)cccc12 [Example 2.1, 7-((1R,2S)-2-Amino-cyclohexylamino)-5-(3-methyl-1H-indol-7-ylamino)-3H-pyrido[3,4-d]pyridazin-4-one] | 1.6 nM |
| Cn1ccc2c(Nc3nc(N[C@@H]4CCCC[C@@H]4N)cc4cn[nH]c(=O)c34)cccc21 [Example 2.2, 7-((1R,2S)-2-Amino-cyclohexylamino)-5-(1-methyl-1H-indol-4-ylamino)-3H-pyrido[3,4-d]pyridazin-4-one] | 0.6 nM |
| Cn1cc2c(Nc3nc(N[C@@H]4CCCC[C@@H]4N)cc4cn[nH]c(=O)c34)cccc2n1 [Example 2.3, 7-((1R,2S)-2-Amino-cyclohexylamino)-5-(2-methyl-2H-indazol-4-ylamino)-3H-pyrido[3,4-d]pyridazin-4-one] | 1.1 nM |
| Cc1c[nH]c2c(Nc3nc(N[C@@H]4CCCC[C@@H]4N)cc4cn[nH]c(=O)c34)cc(F)cc12 [Example 2.4, 7-((1R,2S)-2-Amino-cyclohexylamino)-5-(5-fluoro-3-methyl-1H-indol-7-ylamino)-3H-pyrido[3,4-d]pyridazin-4-one] | 1.3 nM |
| N[C@H]1CCCC[C@H]1Nc1cc2cn[nH]c(=O)c2c(Nc2ccc3ncccc3c2)n1 [Example 2.5, 7-((1R,2S)-2-Amino-cyclohexylamino)-5-(quinolin-6-ylamino)-3H-pyrido[3,4-d]pyridazin-4-one] | 1.6 nM |
| N[C@H]1CCCC[C@H]1Nc1cc2cn[nH]c(=O)c2c(Nc2cccc3occc23)n1 [Example 2.6, 7-((1R,2S)-2-Amino-cyclohexylamino)-5-(benzofuran-4-ylamino)-3H-pyrido[3,4-d]pyridazin-4-one] | 2 nM |
| N[C@H]1CCCC[C@H]1Nc1cc2cn[nH]c(=O)c2c(Nc2cccc3sccc23)n1 [Example 2.7, 7-((1R,2S)-2-Amino-cyclohexylamino)-5-(benzo[b]thiophen-4-ylamino)-3H-pyrido[3,4-d]pyridazin-4-one] | 2.1 nM |
| Cc1ccc2c(Nc3nc(N[C@@H]4CCCC[C@@H]4N)cc4cn[nH]c(=O)c34)cccc2n1 [Example 2.8, 7-((1R,2S)-2-Amino-cyclohexylamino)-5-(2-methyl-quinolin-5-ylamino)-3H-pyrido[3,4-d]pyridazin-4-one] | 2.3 nM |
| N[C@H]1CCCC[C@H]1Nc1cc2cn[nH]c(=O)c2c(Nc2cccc3[nH]ccc23)n1 [Example 2.9, 7-((1R,2S)-2-Amino-cyclohexylamino)-5-(1H-indol-4-ylamino)-3H-pyrido[3,4-d]pyridazin-4-one] | 2.7 nM |
| N[C@H]1CCCC[C@H]1Nc1cc2cn[nH]c(=O)c2c(Nc2cccc3[nH]ncc23)n1 [Example 2.10, 7-((1R,2S)-2-Amino-cyclohexylamino)-5-(1H-indazol-4-ylamino)-3H-pyrido[3,4-d]pyridazin-4-one] | 5.2 nM |
| N[C@H]1CCCC[C@H]1Nc1cc2cn[nH]c(=O)c2c(Nc2cnc3ccccc3c2)n1 [Example 2.11, 7-((1R,2S)-2-Amino-cyclohexylamino)-5-(quinolin-3-ylamino)-3H-pyrido[3,4-d]pyridazin-4-one] | 5.4 nM |
| N[C@H]1CCCC[C@H]1Nc1cc2cn[nH]c(=O)c2c(Nc2cccc3cc[nH]c23)n1 [Example 2.12, 7-((1R,2S)-2-Amino-cyclohexylamino)-5-(1H-indol-7-ylamino)-3H-pyrido[3,4-d]pyridazin-4-one] | 7 nM |
| Cc1ccc(Nc2nc(N[C@@H]3CCCC[C@@H]3N)cc3cn[nH]c(=O)c23)c2cccnc12 [Example 2.13, 7-((1R,2S)-2-Amino-cyclohexylamino)-5-(8-methyl-quinolin-5-ylamino)-3H-pyrido[3,4-d]pyridazin-4-one] | 7 nM |
| N#Cc1c[nH]c2c(Nc3nc(N[C@@H]4CCCC[C@@H]4N)cc4cn[nH]c(=O)c34)cccc12 [Example 2.14, 7-[7-((1R,2S)-2-Amino-cyclohexylamino)-4-oxo-3,4-dihydro-pyrido[3,4-d]pyridazin-5-ylamino]-1H-indole-3-carbonitrile] | 8 nM |
| Cc1ccc(Nc2nc(N[C@@H]3CCCC[C@@H]3N)cc3cn[nH]c(=O)c23)c2cc[nH]c12 [Example 2.15, 7-((1R,2S)-2-Amino-cyclohexylamino)-5-(7-methyl-1H-indol-4-ylamino)-3H-pyrido[3,4-d]pyridazin-4-one] | 9 nM |
| N[C@H]1CCCC[C@H]1Nc1cc2cn[nH]c(=O)c2c(Nc2cccc3ncccc23)n1 [Example 2.16, 7-((1R,2S)-2-Amino-cyclohexylamino)-5-(quinolin-5-ylamino)-3H-pyrido[3,4-d]pyridazin-4-one] | 9 nM |
| Cc1cc2c(Nc3nc(N[C@@H]4CCCC[C@@H]4N)cc4cn[nH]c(=O)c34)cccc2[nH]1 [Example 2.17, 7-((1R,2S)-2-Amino-cyclohexylamino)-5-(2-methyl-1H-indol-4-ylamino)-3H-pyrido[3,4-d]pyridazin-4-one] | 16 nM |
| N[C@H]1CCCC[C@H]1Nc1cc2cn[nH]c(=O)c2c(Nc2ccc3nccnc3c2)n1 [Example 2.18, 7-((1R,2S)-2-Amino-cyclohexylamino)-5-(quinoxalin-6-ylamino)-3H-pyrido[3,4-d]pyridazin-4-one] | 26 nM |
| N[C@H]1CCCC[C@H]1Nc1cc2cn[nH]c(=O)c2c(Nc2ccc3cccnc3c2)n1 [Example 2.19, 7-((1R,2S)-2-Amino-cyclohexylamino)-5-(quinolin-7-ylamino)-3H-pyrido[3,4-d]pyridazin-4-one] | 42 nM |
| N[C@H]1CCCC[C@H]1Nc1cc2cn[nH]c(=O)c2c(Nc2cccc3cccnc23)n1 [Example 2.20, 7-((1R,2S)-2-Amino-cyclohexylamino)-5-(quinolin-8-ylamino)-3H-pyrido[3,4-d]pyridazin-4-one] | 45 nM |
| Cc1c[nH]c2c(Nc3nc(N[C@@H]4CCOC[C@@H]4N)cc4cn[nH]c(=O)c34)cccc12 [Example 3.1, 7-((3R,4R)-3-Amino-tetrahydro-pyran-4-ylamino)-5-(3-methyl-1H-indol-7-ylamino)-3H-pyrido[3,4-d]pyridazin-4-one] | 9 nM |
| N[C@H]1COCC[C@H]1Nc1cc2cn[nH]c(=O)c2c(Nc2cccc3sccc23)n1 [Example 3.2, 7-((3R,4R)-3-Amino-tetrahydro-pyran-4-ylamino)-5-(benzo[b]thiophen-4-ylamino)-3H-pyrido[3,4-d]pyridazin-4-one] | 1.8 nM |
| Cc1c[nH]c2c(Nc3nc(N[C@@H]4CCOC[C@@H]4N)cc4cn[nH]c(=O)c34)cc(F)cc12 [Example 3.3, 7-((3R,4R)-3-Amino-tetrahydro-pyran-4-ylamino)-5-(5-fluoro-3-methyl-1H-indol-7-ylamino)-3H-pyrido[3,4-d]pyridazin-4-one] | 2 nM |
| N[C@H]1COCC[C@H]1Nc1cc2cn[nH]c(=O)c2c(Nc2cccc3cc[nH]c23)n1 [Example 3.4, 7-((3R,4R)-3-Amino-tetrahydro-pyran-4-ylamino)-5-(1H-indol-7-ylamino)-3H-pyrido[3,4-d]pyridazin-4-one] | 32 nM |
